Results: the NIST ThermoML archive (doi:10.1021/je050540h)

How the values were obtained:
[1] = 101 kPa, Liquid
[2] = xn = mol fraction of the nth substance listed; conditions: 101 kPa, Liquid

CCC(C)O (stereo not given) [butan-2-ol]
[1]
Conditions	mass density [kg/m3]	speed of sound [m/s]	viscosity [mPa·s]
293.15 K	806.84	1230	3.623
298.15 K	802.72	1212	2.995
303.15 K	798.51	1194	2.493

C1CCCC1 [cyclopentane] + CC(C)O
[2]
Conditions	mass density, 293.15 K [kg/m3]	mass density, 298.15 K [kg/m3]	mass density, 303.15 K [kg/m3]	speed of sound, 293.15 K [m/s]	speed of sound, 298.15 K [m/s]	speed of sound, 303.15 K [m/s]	viscosity, 293.15 K [mPa·s]	viscosity, 298.15 K [mPa·s]	viscosity, 303.15 K [mPa·s]
x1 = 0.0486	782.53	778.24	773.87	1156	1138	1120	2.105	1.823	1.587
x1 = 0.091	779.96	775.6	771.15	1155	1136	1118	1.874	1.627	1.421
x1 = 0.2019	774.33	769.77	765.12	1156	1136	1116	1.425	1.254	1.11
x1 = 0.2958	769.22	764.52	759.73	1156	1135	1114	1.172	1.038	0.925
x1 = 0.3877	764.63	759.81	754.9	1158	1136	1114	0.954	0.856	0.77
x1 = 0.4823	760.38	755.45	750.44	1162	1139	1116	0.799	0.724	0.658
x1 = 0.5974	755.59	750.58	745.49	1168	1145	1121	0.641	0.588	0.542
x1 = 0.7206	750.97	745.92	740.79	1179	1154	1130	0.535	0.499	0.466
x1 = 0.8136	747.96	742.89	737.76	1190	1165	1140	0.484	0.454	0.427
x1 = 0.9219	745.39	740.33	735.2	1208	1183	1157	0.449	0.424	0.401
x1 = 0.9533	744.87	739.86	734.72	1215	1189	1164	0.443	0.419	0.398
x1 = 1	744.52	739.55	734.54	1232	1206	1180	0.438	0.416	0.394

C1CCCC1 [cyclopentane] + CCC(C)O
[2]
Conditions	mass density, 293.15 K [kg/m3]	mass density, 298.15 K [kg/m3]	mass density, 303.15 K [kg/m3]	speed of sound, 293.15 K [m/s]	speed of sound, 298.15 K [m/s]	speed of sound, 303.15 K [m/s]	viscosity, 293.15 K [mPa·s]	viscosity, 298.15 K [mPa·s]	viscosity, 303.15 K [mPa·s]
x1 = 0.0445	803.52	799.33	795.05	1225	1207	1188	3.152	2.621	2.194
x1 = 0.1036	799.5	795.2	790.81	1219	1200	1181	2.649	2.231	1.898
x1 = 0.1872	793.75	789.32	784.79	1212	1192	1172	2.121	1.811	1.56
x1 = 0.2856	787.01	782.42	777.74	1204	1183	1162	1.604	1.393	1.219
x1 = 0.3938	779.61	774.87	770.05	1197	1175	1153	1.194	1.054	0.94
x1 = 0.4873	773.26	768.43	763.52	1193	1170	1148	0.946	0.85	0.77
x1 = 0.6179	764.92	760.01	755.02	1191	1167	1144	0.692	0.636	0.588
x1 = 0.7034	759.79	754.84	749.82	1193	1169	1145	0.61	0.569	0.531
x1 = 0.8115	753.71	748.71	743.64	1200	1175	1151	0.517	0.485	0.455
x1 = 0.9113	748.61	743.57	738.46	1211	1186	1161	0.468	0.441	0.416
x1 = 0.9506	746.74	741.7	736.6	1218	1192	1167	0.451	0.426	0.403
x1 = 1	744.52	739.55	734.54	1232	1206	1180	0.438	0.416	0.394

C1CCCC1 [cyclopentane] + CCCC(C)O
[2]
Conditions	mass density, 293.15 K [kg/m3]	mass density, 298.15 K [kg/m3]	mass density, 303.15 K [kg/m3]	speed of sound, 293.15 K [m/s]	speed of sound, 298.15 K [m/s]	speed of sound, 303.15 K [m/s]	viscosity, 293.15 K [mPa·s]	viscosity, 298.15 K [mPa·s]	viscosity, 303.15 K [mPa·s]
x1 = 0.045	806.38	802.28	798.1	1246	1227	1208	3.573	2.948	2.459
x1 = 0.103	802.8	798.62	794.35	1239	1220	1200	3.005	2.509	2.118
x1 = 0.1878	797.38	793.07	788.68	1229	1209	1189	2.322	1.969	1.687
x1 = 0.2924	790.57	786.12	781.6	1218	1198	1177	1.723	1.491	1.304
x1 = 0.3906	783.89	779.33	774.71	1209	1188	1167	1.296	1.148	1.027
x1 = 0.5117	775.68	771.03	766.32	1201	1179	1157	0.957	0.87	0.794
x1 = 0.6242	768.16	763.43	758.63	1197	1175	1152	0.747	0.694	0.645
x1 = 0.721	761.81	756.98	752.09	1198	1175	1152	0.629	0.587	0.548
x1 = 0.8091	756.27	751.36	746.38	1202	1178	1154	0.552	0.516	0.487
x1 = 0.9094	749.82	744.82	739.76	1211	1186	1161	0.482	0.453	0.428
x1 = 0.9552	746.94	741.92	736.85	1218	1193	1167	0.455	0.43	0.407
x1 = 1	744.52	739.55	734.54	1232	1206	1180	0.439	0.416	0.394

CCCC(C)O (stereo not given) [pentan-2-ol] + C1CCCC1
[2], x2 = 0
Conditions	mass density [kg/m3]	speed of sound [m/s]	viscosity [mPa·s]
293.15 K	809.04	1250	4.001
298.15 K	805.01	1232	3.273
303.15 K	800.9	1214	2.774

CC(C)O [propan-2-ol] + C1CCCC1
[2], x2 = 0
Conditions	mass density [kg/m3]	speed of sound [m/s]	viscosity [mPa·s]
293.15 K	785.07	1156	2.382
298.15 K	780.87	1139	2.045
303.15 K	776.6	1121	1.763

CC(C)O [propan-2-ol] + C1CCCCC1
[2], x2 = 0
Conditions	mass density [kg/m3]	speed of sound [m/s]	viscosity [mPa·s]
293.15 K	785.07	1156	2.382
298.15 K	780.87	1139	2.045
303.15 K	776.6	1121	1.763
